These are literature values, as cited in US9125900B2 (priority 2005, dated 2015).

Where two headings read alike, the source gives them in different places.

Data set [1] has as its system respiratory neurons. As to conditions: for morphine-induced suppression of respiratory neuronal activity: anesthetized rats.
For another data set, the target named is 5-HT7 receptor (Homo sapiens, UniProt P34969).
Data set [2] has as its system respiratory neurons.
A further data set concerns the target 5-HT4a receptor isoform (Homo sapiens, UniProt Q13639).

Chain of 5-HT7 receptor (P34969 whole entry): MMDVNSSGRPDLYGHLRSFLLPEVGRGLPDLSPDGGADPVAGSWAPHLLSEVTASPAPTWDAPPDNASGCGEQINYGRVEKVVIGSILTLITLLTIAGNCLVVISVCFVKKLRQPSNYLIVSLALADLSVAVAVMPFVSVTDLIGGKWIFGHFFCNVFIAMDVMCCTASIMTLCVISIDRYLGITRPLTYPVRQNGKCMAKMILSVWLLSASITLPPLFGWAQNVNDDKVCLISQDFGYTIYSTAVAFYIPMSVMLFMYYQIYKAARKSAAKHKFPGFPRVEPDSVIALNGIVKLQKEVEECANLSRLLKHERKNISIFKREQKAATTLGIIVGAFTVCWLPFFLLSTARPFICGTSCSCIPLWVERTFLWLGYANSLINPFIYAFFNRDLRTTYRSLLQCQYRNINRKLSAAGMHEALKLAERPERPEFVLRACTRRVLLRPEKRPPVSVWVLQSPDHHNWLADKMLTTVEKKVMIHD
Chain of 5-HT4a receptor isoform (Q13639 1-387 isoform Q13639-2): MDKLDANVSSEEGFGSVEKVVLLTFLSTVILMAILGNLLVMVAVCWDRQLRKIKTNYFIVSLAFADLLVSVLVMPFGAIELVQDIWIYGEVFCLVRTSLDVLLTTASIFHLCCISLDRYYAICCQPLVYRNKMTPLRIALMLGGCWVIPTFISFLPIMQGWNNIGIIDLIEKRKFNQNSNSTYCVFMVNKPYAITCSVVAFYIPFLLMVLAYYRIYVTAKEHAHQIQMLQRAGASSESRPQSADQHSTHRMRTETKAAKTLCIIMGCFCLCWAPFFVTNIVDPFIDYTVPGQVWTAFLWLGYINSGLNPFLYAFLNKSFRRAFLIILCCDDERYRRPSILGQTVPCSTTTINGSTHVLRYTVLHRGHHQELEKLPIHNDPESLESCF

Consider `O=C1CC2(CCCC2)CC(=O)N1CCCCN1CCN(c2ncccn2)CC1` [buspirone], for which, in the data set on respiratory neurons [1], the “morphine-induced suppression of respiratory neuronal activity” value is given as “reversed the suppression”. Further, the receptor activity entry on 5-HT7 receptor is “no effect on the 5-HT7 receptor”.

With `CCCN(CCC)C1CCc2cccc(O)c2C1` (racemic) [8-OH-DPAT, 8-hydroxy-2-(di-n-propylamino)tetralin], the “respiratory frequency or ventilation rate” value in the data set with hypoxic goats was “did not increase respiratory frequency or ventilation rate”. Further, the phrenic nerve discharges result in the data set with respiratory neurons [2] (anesthetized cats, higher doses 50 and 90 μg/kg) is “suppressed phrenic nerve discharges”; in the data set with respiratory neurons [2] (anesthetized cats, lower doses 10-50 μg/kg), “increased the frequency of phrenic nerve discharges”; in the data set with respiratory neurons [2] (cats, 20 μg/kg intravenously), “phrenic nerve discharges were decreased”. Also, the “pentobarbital- and ketamine-induced suppression of respiratory neurons” value in the data set on respiratory neurons [2] (cats) is “reverse pentobarbital- and ketamine-induced suppression of respiratory neurons”. In addition, in the data set with respiratory neurons [1] (100 μg/kg, rats), the “depressant effects on respiratory neurons” value is on record as “no depressant effects on rat respiratory neurons”. In the data set with respiratory neurons [1], the “morphine-induced suppression of respiratory neuronal activity” value is given as “reversed the morphine-induced suppression of neuronal activity”.

For `COc1cc(N)c(Cl)cc1C(=O)NC1CN2CCC1CC2.Cl` (racemic) [zacopride, 4-amino-N-1-azabicyclo[2.2.2] oct-3-yl-5-chloro-2-methoxybenzamide hydrochloride], at 5-HT4a receptor isoform, the receptor activity result is on record as “agonist of the 5-HT4a receptor isoform”.
